{
  "source": "patent US12280043B2",
  "about": "“Sustained-release anesthetic compositions and methods of preparation thereof” (TLC Biopharmaceuticals, Inc., priority 2017, dated 2025)",
  "key": {"[1]": {"assay": "Pharmacokinetic study after single SC injection", "assay_type": "in vivo, Sprague-Dawley rats", "description": "Jugular vein cannulated (JVC) female Sprague-Dawley rats were used for a pharmacokinetic (PK) study. The rats were housed in a holding room that operates on a 12-hr light/12-hr dark circadian cycle and that provides free access to water and food. […] Blood samples were collected at 15 min, 1 hour, 2 hours, 4 hours, 8 hours, 24 hours, 48 hours, and 72 hours post-injection. Plasma samples were obtained by centrifugation and were kept frozen at −80° C. until analysis. PK data obtained from the samples were analyzed using a noncompartmental model (WinNonlin® software)."}, "[2]": {"test_system": "paw incision mouse model", "assay": "Anesthetic effect in a paw incision mouse model (von Frey mechanical threshold)", "assay_type": "in vivo, C57/BL6 mice", "conditions": "0.18 mg ropivacaine per incision", "method": "Wild type male C57/BL6 mice (8-week-old, Envigo) were used for evaluating the anesthetic efficacy after paw incision as described in Anesthesiology, 2003 October; 99 (4): 1023-7 and J. Neurosci Methods. 1994 July; 53 (1): 55-63. […] Baseline (T=−2 hours) mechanical (von Frey) thresholds of 32 mice were taken prior to surgery; baseline thresholds were measured on the mouse's left hind paw. All 32 mice received a plantar incision (5 mm long and […]) on their left hind paw. Two-hours post-surgery (T=0 hour), the mechanical threshold of each mouse was reassessed and the presence of mechanical allodynia in each mouse was confirmed. Thirty-two mice were randomized into 4 groups (8 mice per group). […] The 50% paw withdrawal threshold of each mouse was obtained using the up-down method at baseline time point (−2), and the designated time points (0, 1, 2, 3, 4, 5, 6, 8, and 24 hours) after SC injection treatment. […] The average 50% withdrawal threshold for each treatment group was graphed; data presented as a withdrawal threshold (g) were plotted against time (FIG. 2A). To account for variability among the baseline mechanical sensitivities of individual mice, each mouse's 50% paw withdrawal thresholds after surgery and treatment were normalized to its own baseline 50% withdrawal threshold (T=−2 hours). […]"}, "[3]": {"assay": "pKa and ionisation state stated in text", "assay_type": "physicochemical", "conditions": "at pH 6.0, calculation from pKa"}, "[4]": {"conditions": "female, Sprague-Dawley, rat, plasma, sc, 20 mg/kg"}},
  "data": [
    {"smiles": "CCCN1CCCC[C@H]1C(=O)Nc1c(C)cccc1C", "note": "[Ropivacaine, ropivacaine]", "values": [
      {"measurement": "Cmax", "setting": "[1]; [4]", "value": "802 ± 208", "unit": "ng/mL"},
      {"measurement": "half-life", "setting": "[1]; [4]", "value": "186 ± 84", "unit": "min"},
      {"measurement": "AUC(0-t)", "setting": "[1]; female, Sprague-Dawley, rat, plasma, sc, 20 mg/kg, read-out: AUC0-4", "value": "4040 ± 632", "unit": "ng·h/mL"},
      {"measurement": "time until which ropivacaine could be detected in the plasma", "setting": "[1]; rats, single SC, same dosage 20.0 mg/kg", "value": "≤ 24", "unit": "h"},
      {"measurement": "analgesia compared to vehicle group", "setting": "[2]; SC", "value": "some degree of analgesia"},
      {"measurement": "withdrawal threshold at the first time point", "setting": "[2]; T=1 hour after SC injection, increased from 0.04 g", "value": 0.22, "unit": "g"},
      {"measurement": "theoretically uncharged ropivacaine, of available ropivacaine", "setting": "[3]", "value": 0.8, "unit": "%"}
    ]}
  ]
}
